Columns and labels:
Assay type in all cases: functional
[1] = tested on: Blumeria graminis f. sp. tritici; experiment: Fungicidal activity against Blumeria graminis f. sp. tritici inoculated on wheat seedlings pre-treated with compound 24 hr before fungal inoculation assessed as inhibition of wheat powdery mildew disease at 7.8 ppm measured after 10 days under greenhouse conditions relative to untreated control
Podosphaera fuliginea [2] = experiment: Fungicidal activity against Podosphaera fuliginea inoculated on cucumber plants pre-treated with compound 24 hr before fungal inoculation assessed as inhibition of cucumber powdery mildew disease at 7.8 ppm measured after 10 days under greenhouse conditions relative to untreated control
Puccinia coronata [3] = experiment: Fungicidal activity against Puccinia coronata inoculated in oat leaves treated with compound 24 hr after fungal inoculation assessed as inhibition of oat crown rust disease at 31.3 ppm measured after 9 days under greenhouse conditions relative to untreated control
Puccinia coronata [4] = experiment: Fungicidal activity against Puccinia coronata inoculated in oat leaves pre-treated with compound 24 hr before fungal inoculation assessed as inhibition of oat crown rust disease at 7.8 ppm measured after 9 days under greenhouse conditions relative to untreated control
Puccinia coronata [5] = experiment: Fungicidal activity against Puccinia coronata inoculated in oat leaves pre-treated with compound 24 hr before fungal inoculation assessed as inhibition of oat crown rust disease at 31.3 ppm measured after 9 days under greenhouse conditions relative to untreated control
Botrytis cinerea [6] = experiment: Fungicidal activity against Botryotinia fuckeliana inoculated on cucumber leaves treated with compound 24 hr after fungal inoculation assessed as inhibition of cucumber gray mold disease at 7.8 ppm measured after 3 days under greenhouse conditions relative to untreated control
Pyricularia oryzae = experiment: Inhibition of oxygen consumption in Magnaporthe oryzae submitochondrial particles using NADH substrate
Puccinia coronata [7] = experiment: Fungicidal activity against Puccinia coronata inoculated in oat leaves treated with compound 24 hr after fungal inoculation assessed as inhibition of oat crown rust disease at 7.8 ppm measured after 9 days under greenhouse conditions relative to untreated control
Botrytis cinerea [8] = experiment: Fungicidal activity against Botryotinia fuckeliana inoculated on cucumber leaves pre-treated with compound 24 hr before fungal inoculation assessed as inhibition of cucumber gray mold disease at 31.3 ppm measured after 3 days under greenhouse conditions relative to untreated control
Podosphaera fuliginea [9] = experiment: Fungicidal activity against Podosphaera fuliginea inoculated on cucumber plants treated with compound 24 hr after fungal inoculation assessed as inhibition of cucumber powdery mildew disease at 31.3 ppm measured after 10 days under greenhouse conditions relative to untreated control
[10] = tested on: Blumeria graminis f. sp. tritici; experiment: Fungicidal activity against Blumeria graminis f. sp. tritici inoculated on wheat seedlings pre-treated with compound 24 hr before fungal inoculation assessed as inhibition of wheat powdery mildew disease at 31.3 ppm measured after 10 days under greenhouse conditions relative to untreated control
Podosphaera fuliginea [11] = experiment: Fungicidal activity against Podosphaera fuliginea inoculated on cucumber plants pre-treated with compound 24 hr before fungal inoculation assessed as inhibition of cucumber powdery mildew disease at 31.3 ppm measured after 10 days under greenhouse conditions relative to untreated control
Botrytis cinerea [12] = experiment: Fungicidal activity against Botryotinia fuckeliana inoculated on cucumber leaves treated with compound 24 hr after fungal inoculation assessed as inhibition of cucumber gray mold disease at 31.3 ppm measured after 3 days under greenhouse conditions relative to untreated control
Botrytis cinerea [13] = experiment: Fungicidal activity against Botryotinia fuckeliana inoculated on cucumber leaves pre-treated with compound 24 hr before fungal inoculation assessed as inhibition of cucumber gray mold disease at 7.8 ppm measured after 3 days under greenhouse conditions relative to untreated control
[14] = tested on: Blumeria graminis f. sp. tritici; experiment: Fungicidal activity against Blumeria graminis f. sp. tritici inoculated on wheat seedlings treated with compound 24 hr after fungal inoculation assessed as inhibition of wheat powdery mildew disease at 7.8 ppm measured after 10 days under greenhouse conditions relative to untreated control
[15] = tested on: Blumeria graminis f. sp. tritici; experiment: Fungicidal activity against Blumeria graminis f. sp. tritici inoculated on wheat seedlings treated with compound 24 hr after fungal inoculation assessed as inhibition of wheat powdery mildew disease at 31.3 ppm measured after 10 days under greenhouse conditions relative to untreated control
Podosphaera fuliginea [16] = experiment: Fungicidal activity against Podosphaera fuliginea inoculated on cucumber plants treated with compound 24 hr after fungal inoculation assessed as inhibition of cucumber powdery mildew disease at 7.8 ppm measured after 10 days under greenhouse conditions relative to untreated control
[17] = tested on: Blumeria graminis f. sp. tritici; experiment: Fungicidal activity against Blumeria graminis f. sp. tritici inoculated on wheat seedlings pre-treated with compound 24 hr before fungal inoculation assessed as inhibition of wheat powdery mildew disease at 125 ppm measured after 10 days under greenhouse conditions relative to untreated control
[18] = tested on: Blumeria graminis f. sp. tritici; experiment: Fungicidal activity against Blumeria graminis f. sp. tritici inoculated on wheat seedlings pre-treated with compound 24 hr before fungal inoculation assessed as inhibition of wheat powdery mildew disease at 500 ppm measured after 10 days under greenhouse conditions relative to untreated control
Podosphaera fuliginea [19] = experiment: Fungicidal activity against Podosphaera fuliginea inoculated on cucumber plants pre-treated with compound 24 hr before fungal inoculation assessed as inhibition of cucumber powdery mildew disease at 500 ppm measured after 10 days under greenhouse conditions relative to untreated control

For `CON=C(c1ccon1)c1ccccc1COc1cc(C)ccc1C`, the inhibition at 7.8 ppm [1] was 90% and the inhibition at 7.8 ppm (Podosphaera fuliginea [2]) was 90%.

Work on `CNC(=O)/C(=N/OC)c1ccccc1Oc1cc(C)ccc1C` yielded an inhibition at 31.3 ppm (Puccinia coronata [3]) of 100%, an inhibition at 7.8 ppm (Puccinia coronata [4]) of 100% and an inhibition at 31.3 ppm (Puccinia coronata [5]) of 100%. It also gave an inhibition at 7.8 ppm (Botrytis cinerea [6]) of 40%, an IC50 (Pyricularia oryzae) of 18 nM and an inhibition at 7.8 ppm (Puccinia coronata [7]) of 100%. The inhibition at 31.3 ppm (Botrytis cinerea [8]) was 50%, the inhibition at 31.3 ppm (Podosphaera fuliginea [9]) was 100% and the inhibition at 31.3 ppm [10] was 100%. It also gave an inhibition at 7.8 ppm [1] of 100%, an inhibition at 31.3 ppm (Podosphaera fuliginea [11]) of 100% and an inhibition at 7.8 ppm (Podosphaera fuliginea [2]) of 100%. The inhibition at 31.3 ppm (Botrytis cinerea [12]) was 50%, the inhibition at 7.8 ppm (Botrytis cinerea [13]) was 40% and the inhibition at 7.8 ppm [14] was 97%. The inhibition at 31.3 ppm [15] was 97% and the inhibition at 7.8 ppm (Podosphaera fuliginea [16]) was 100%.

`CON=C(C1=NOCC1)c1ccccc1COc1cc(C)ccc1C` gave an inhibition at 125 ppm [17] of 90% and an inhibition at 7.8 ppm (Podosphaera fuliginea [2]) of 90%.

`CO/N=C(\c1ccon1)c1ccccc1COc1cc(C)ccc1C` gave an inhibition at 7.8 ppm [1] of 90% and an inhibition at 31.3 ppm (Podosphaera fuliginea [11]) of 90%.

For `CO/N=C(\c1ccno1)c1ccccc1COc1cc(C)ccc1C`, the inhibition at 500 ppm [18] was 90% and the inhibition at 500 ppm (Podosphaera fuliginea [19]) was 90%.

In the case of `CON=C(c1cc(C)on1)c1ccccc1COc1cc(C)ccc1C`, the inhibition at 31.3 ppm [10] is reported as 90% and the inhibition at 7.8 ppm (Podosphaera fuliginea [2]) is reported as 90%.

In the case of `CO/N=C(\c1cc(C)no1)c1ccccc1COc1cc(C)ccc1C`, the inhibition at 31.3 ppm (Puccinia coronata [3]) is reported as 100%, the inhibition at 7.8 ppm (Puccinia coronata [4]) is reported as 90% and the inhibition at 31.3 ppm (Puccinia coronata [5]) is reported as 97%. The inhibition at 7.8 ppm (Botrytis cinerea [6]) was 0%, the IC50 (Pyricularia oryzae) was 46 nM and the inhibition at 7.8 ppm (Puccinia coronata [7]) was 97%. The inhibition at 31.3 ppm (Botrytis cinerea [8]) was 30%, the inhibition at 31.3 ppm (Podosphaera fuliginea [9]) was 100% and the inhibition at 31.3 ppm [10] was 97%. It also gave an inhibition at 7.8 ppm [1] of 97%, an inhibition at 31.3 ppm (Podosphaera fuliginea [11]) of 100% and an inhibition at 7.8 ppm (Podosphaera fuliginea [2]) of 100%. It also gave an inhibition at 31.3 ppm (Botrytis cinerea [12]) of 20%, an inhibition at 7.8 ppm (Botrytis cinerea [13]) of 10% and an inhibition at 7.8 ppm [14] of 70%. The inhibition at 31.3 ppm [15] was 97% and the inhibition at 7.8 ppm (Podosphaera fuliginea [16]) was 100%.

Compound `CO/N=C(/C1=NOCC1)c1ccccc1COc1cc(C)ccc1C` has an inhibition at 31.3 ppm (Puccinia coronata [3]) of 50%, an inhibition at 7.8 ppm (Puccinia coronata [4]) of 30% and an inhibition at 31.3 ppm (Puccinia coronata [5]) of 90%. It also gave an inhibition at 7.8 ppm (Botrytis cinerea [6]) of 0%, an inhibition at 7.8 ppm (Puccinia coronata [7]) of 0% and an inhibition at 31.3 ppm (Botrytis cinerea [8]) of 20%. For the same compound, the inhibition at 31.3 ppm (Podosphaera fuliginea [9]) was 100%, the inhibition at 31.3 ppm [10] was 90% and the inhibition at 7.8 ppm [1] was 90%. It also gave an inhibition at 31.3 ppm (Podosphaera fuliginea [11]) of 100%, an inhibition at 7.8 ppm (Podosphaera fuliginea [2]) of 90% and an inhibition at 31.3 ppm (Botrytis cinerea [12]) of 20%. It also gave an inhibition at 7.8 ppm (Botrytis cinerea [13]) of 0%, an inhibition at 7.8 ppm [14] of 70% and an inhibition at 31.3 ppm [15] of 97%. For the same compound, the inhibition at 7.8 ppm (Podosphaera fuliginea [16]) was 100%.

In the case of `CO/N=C(/C1=NOC(C)C1)c1ccccc1COc1cc(C)ccc1C` (configuration not stated), the inhibition at 500 ppm [18] is reported as 90% and the inhibition at 31.3 ppm (Podosphaera fuliginea [11]) is reported as 90%.

Compound `CO/N=C(/C1=NOC(C)(C)C1)c1ccccc1COc1cc(C)ccc1C` has an inhibition at 500 ppm [18] of under 90% and an inhibition at 500 ppm (Podosphaera fuliginea [19]) of under 90%.

Compound `CO/N=C(\c1ccccc1COc1cc(C)ccc1C)C1CC(C)=NO1` (configuration not stated) has an inhibition at 500 ppm [18] of under 90% and an inhibition at 31.3 ppm (Podosphaera fuliginea [11]) of 90%.

`CO/N=C(/c1ccon1)c1ccccc1COc1cc(C)ccc1C` gave an inhibition at 31.3 ppm (Puccinia coronata [3]) of 70%, an inhibition at 7.8 ppm (Puccinia coronata [4]) of 90% and an inhibition at 31.3 ppm (Puccinia coronata [5]) of 97%. It also gave an inhibition at 7.8 ppm (Botrytis cinerea [6]) of 30%, an IC50 (Pyricularia oryzae) of 103 nM and an inhibition at 7.8 ppm (Puccinia coronata [7]) of 30%. For the same compound, the inhibition at 31.3 ppm (Botrytis cinerea [8]) was 40%, the inhibition at 31.3 ppm (Podosphaera fuliginea [9]) was 100% and the inhibition at 31.3 ppm [10] was 97%. It also gave an inhibition at 7.8 ppm [1] of 97%, an inhibition at 31.3 ppm (Podosphaera fuliginea [11]) of 100% and an inhibition at 7.8 ppm (Podosphaera fuliginea [2]) of 100%. It also gave an inhibition at 31.3 ppm (Botrytis cinerea [12]) of 30%, an inhibition at 7.8 ppm (Botrytis cinerea [13]) of 20% and an inhibition at 7.8 ppm [14] of 90%. It also gave an inhibition at 31.3 ppm [15] of 97% and an inhibition at 7.8 ppm (Podosphaera fuliginea [16]) of 100%.

In the case of `CO/N=C(/c1cc(C)on1)c1ccccc1COc1cc(C)ccc1C`, the inhibition at 500 ppm [18] is reported as under 90% and the inhibition at 31.3 ppm (Podosphaera fuliginea [11]) is reported as 90%.

In the case of `CO/N=C(/c1cc(OC)on1)c1ccccc1COc1cc(C)ccc1C`, the inhibition at 500 ppm [18] is reported as under 90% and the inhibition at 31.3 ppm (Podosphaera fuliginea [11]) is reported as 90%.

`CO/N=C(\c1ccccc1COc1cc(C)ccc1C)c1c(C)noc1C` gave an inhibition at 500 ppm [18] of under 90% and an inhibition at 500 ppm (Podosphaera fuliginea [19]) of 90%.

`CO/N=C(/c1ccno1)c1ccccc1COc1cc(C)ccc1C` was tested, and the inhibition at 31.3 ppm [10] was 90% and the inhibition at 31.3 ppm (Podosphaera fuliginea [11]) was 90%.

In the case of `CO/N=C(/c1cc(C)no1)c1ccccc1COc1cc(C)ccc1C`, the inhibition at 31.3 ppm [10] is reported as 90% and the inhibition at 7.8 ppm (Podosphaera fuliginea [2]) is reported as 90%.

Compound `CCc1cc(/C(=N/OC)c2ccccc2COc2cc(C)ccc2C)on1` has an inhibition at 500 ppm [18] of under 90% and an inhibition at 500 ppm (Podosphaera fuliginea [19]) of 90%.

In the case of `CO/N=C(\Cc1cc(C)no1)c1ccccc1COc1cc(C)ccc1C`, the inhibition at 500 ppm [18] is reported as under 90% and the inhibition at 500 ppm (Podosphaera fuliginea [19]) is reported as under 90%.
